Here are results for six compounds from patent US20220371989A1, “N-ACYL-TYROSINE DERIVATIVES AND USES THEREOF” (Sederma, priority 2019, published 2022).

“Also recorded” adds a separate entry of the source.

Common to all, as to assay type: cell-based
For experiment [1], the system named is Enterococcus faecium EF379 (VRE). As to the kind of experiment: microbroth dilution antimicrobial assay, E. faecium EF379 (VRE). As to conditions: for IC50: Enterococcus faecium EF379 (VRE), 22 h, 37° C., triplicate, read-out: IC50 of N-Acyltyrosines. From the text:
(§1) α-Methylation of N-pamitoyltyrosines confers antimicrobial activity. Compound (1) was initially screened for antimicrobial activity against the following panel of pathogenic bacteria and fungi in Table 1 in microbroth dilution assays: methicillin-resistant Staphylococcus aureus (MRSA), Staphylococcus warneri, vancomycin-resistant Enterococcus faecium (VRE), Pseudomonas aeruginosa, Proteus vulgaris and Candida albicans. […] The inventors were aware of no reports on anti-Staphylococcus activity of N-acyltyrosines or on anti-Enterococcal activity of any N-acylated amino acid; thus, it was hypothesized that the α-methyl substituent of compound (1) may be a key component of the antimicrobial pharmacophore of compound 1, may confer Staphylococcus inhibitory activity to N-acyltyrosines, and/or perhaps may play a role in their Enterococcus activity.
(§2) To test the proposed structure-activity relationship (SAR), a structural analogue compound (2) of compound (1) was synthesized that lacks an a-methyl substituent, and compound (2) was tested for antimicrobial activity in parallel with compound (1). Analogues (3) and (4) were also synthesized and assayed to further support a potential SAR involving the O-methyl substituent (FIG. 16-21). To thoroughly characterize the anti-Enterococcal activity of compounds (1)-(4), five veterinary clinical isolates from veterinary cases (in addition to VRE EF379) were obtained for this study. All five clinical isolates were classified as vancomycin-susceptible.
(§3) Evaluation of antimicrobial activity and cytotoxicity. The following five Enterococcus spp. were isolated from clinical specimens at the Atlantic Veterinary College (AVC) by the AVC Diagnostic Services Bacteriology Laboratory. Isolates were identified using the Bruker microflex LT MALDI-TOF with MBT Compass version 4.179. The direct colony transfer method was used with the Bruker Matrix HCCA (α-cyano-4-hydroxycinnamic acid) overlay, following manufacturer guidelines. Score values between 2.00 and 3.00 were considered high confidence identifications. The following isolates (with source species) were identified: E. faecium 15337 (feline), E. faecalis 16371 (canine), E. gallinarum 20993 (erinaceine), E. casseliflavus 15984 (equine) and E. hirae 17446 (avine). Antimicrobial activity of 1-4 was evaluated against all five clinical Enterococcus isolates in addition to methicillin-resistant Staphylococcus aureus ATCC 33591 (MRSA), S. warneri ATCC 17917, vancomycin-resistant Enterococcus faecium EF379 (VRE), Pseudomonas aeruginosa ATCC 14210, Proteus vulgaris ATCC 12454 and Candida albicans ATCC 14035. All testing was carried out in triplicate according to the Clinical Laboratory Standards Institute testing standards in a 96-well plate microbroth dilution assay as previously described.^14 Optical density was measured using a Thermo Scientific Varioskan Flash plate reader at 600 nm, recording at time zero and then again after incubation for 22 h (37° C.) to determine percent growth inhibition. Cytotoxicity was evaluated against Vero kidney cell line from African green monkey (Cercopithecus aethiops), MCF7 human breast adenocarcinoma cells (ATCC HTB-22), human breast adenocarcinoma cells (ATCC HTB-26) and HCT-116 human colorectal carcinoma cells (ATCC CCL-247). All assays were carried out as described previously.^14 Fluorescence was measured using a Thermo Scientific Varioskan Flash plate reader at 560/12 excitation, 590 nm emission both at time zero and 4 h after alamarBlue (Invitrogen) addition. For both antimicrobial and cytotoxicity data, growth inhibition was expressed as a percentage and plotted against the logarithm of concentration.
(In general: Broth dilution looks for growth in wells or tubes with falling amounts of substance.)

The test system of experiment [2] is Enterococcus faecium 15337. The experiment in a line: microbroth dilution antimicrobial assay, E. faecium 15337. As to conditions: for IC50: Enterococcus faecium 15337, microbroth dilution, 22 h, 37° C., triplicate, read-out: IC50 of N-Acyltyrosines. The protocol: as §2, §3
Experiment [3] relates to Enterococcus faecalis 16371. As to the kind of experiment: microbroth dilution antimicrobial assay, E. faecalis 16371. As to conditions: for IC50: Enterococcus faecalis 16371, microbroth dilution, 22 h, 37° C., triplicate, read-out: IC50 of N-Acyltyrosines. On the procedure:
as §2, §3

For experiment [4], the system named is Enterococcus gallinarum 20993. The experiment in a line: microbroth dilution antimicrobial assay, E. gallinarum 20993. As to conditions: for IC50: Enterococcus gallinarum 20993, microbroth dilution, 22 h, 37° C., triplicate, read-out: IC50 of N-Acyltyrosines. The protocol:
as §2, §3

Experiment [5] has as its system Enterococcus casseliflavus 15984. As to the kind of experiment: microbroth dilution antimicrobial assay, E. casseliflavus 15984. As to conditions: for IC50: Enterococcus casseliflavus 15984, microbroth dilution, 22 h, 37° C., triplicate, read-out: IC50 of N-Acyltyrosines. The protocol: as §2, §3
Experiment [6] relates to Enterococcus hirae 17446. As to the kind of experiment: microbroth dilution antimicrobial assay, E. hirae 17446. As to conditions: for IC50: Enterococcus hirae 17446, microbroth dilution, 22 h, 37° C., triplicate, read-out: IC50 of N-Acyltyrosines. The protocol: as §2, §3
The subject of experiment [7] is Staphylococcus aureus ATCC 33591 (MRSA). As to the kind of experiment: microbroth dilution antimicrobial assay, S. aureus ATCC 33591 (MRSA). As to conditions: for growth inhibition (in words): S. aureus (MRSA); for growth inhibition (in words) / IC50: microbroth dilution; for IC50: Staphylococcus aureus ATCC 33591 (MRSA), 22 h, 37° C., triplicate, read-out: IC50 of N-Acyltyrosines; for growth at the highest concentration tested (in words): 128 μg/mL.
Text: as §1, §3

Experiment [8] has as its system Staphylococcus warneri ATCC 17917. As to the kind of experiment: microbroth dilution antimicrobial assay, S. warneri ATCC 17917. As to conditions: for IC50: ATCC17917, Staphylococcus warneri ATCC 17917, 22 h, 37° C., triplicate, read-out: IC50 of N-Acyltyrosines; for IC50 / growth inhibition (in words): microbroth dilution; for growth at the highest concentration tested (in words): 128 μg/mL.
Text: as §1, §3

Experiment [9] concerns Pseudomonas aeruginosa ATCC 14210. As to the kind of experiment: microbroth dilution antimicrobial assay, P. aeruginosa ATCC 14210. An excerpt: (§4) α-Methylation of N-pamitoyltyrosines confers antimicrobial activity. Compound (1) was initially screened for antimicrobial activity against the following panel of pathogenic bacteria and fungi in Table 1 in microbroth dilution assays: methicillin-resistant Staphylococcus aureus (MRSA), Staphylococcus warneri, vancomycin-resistant Enterococcus faecium (VRE), Pseudomonas aeruginosa, Proteus vulgaris and Candida albicans. […]
(§5) Evaluation of antimicrobial activity and cytotoxicity. […] Antimicrobial activity of 1-4 was evaluated against all five clinical Enterococcus isolates in addition to methicillin-resistant Staphylococcus aureus ATCC 33591 (MRSA), S. warneri ATCC 17917, vancomycin-resistant Enterococcus faecium EF379 (VRE), Pseudomonas aeruginosa ATCC 14210, Proteus vulgaris ATCC 12454 and Candida albicans ATCC 14035. All testing was carried out in triplicate according to the Clinical Laboratory Standards Institute testing standards in a 96-well plate microbroth dilution assay as previously described.^14 Optical density was measured using a Thermo Scientific Varioskan Flash plate reader at 600 nm, recording at time zero and then again after incubation for 22 h (37° C.) to determine percent growth inhibition. […] For both antimicrobial and cytotoxicity data, growth inhibition was expressed as a percentage and plotted against the logarithm of concentration.

The subject of experiment [10] is Proteus vulgaris ATCC 12454. As to the kind of experiment: microbroth dilution antimicrobial assay, Proteus vulgaris ATCC 12454.
Text: as §4, §5

The subject of experiment [11] is Candida albicans ATCC 14035. The experiment in a line: microbroth dilution antimicrobial assay, Candida albicans ATCC 14035.
Text: as §4, §5

Usually IC50 stands for the point on the concentration scale where inhibition reaches its midpoint.

For the compound `CCCCCCCCCCCCCCCC(=O)N[C@@](C)(Cc1ccc(OC)cc1)C(=O)O` [Compound 1, N-Palmitoyl-α,O-dimethyl-L-tyrosine], the IC50 in experiment [1] (microbroth dilution) is 1.6 µM; in [2], 7.2 µM; in experiment [3] it was 7.4 µM; in experiment [4], 4 µM; in experiment [5], 3.1 µM; in experiment [6], 4.1 µM. In addition, the IC50 in [7] is > 286 µM; in [8], > 286 µM; in [9] (ATCC14210, Pseudomonas aeruginosa ATCC 14210, microbroth dilution, read-out: IC50 of N-Acyltyrosines) it was > 286 µM; in [10] (ATCC12454, Proteus vulgaris ATCC 12454, microbroth dilution, read-out: IC50 of N-Acyltyrosines) it was > 286 µM; in [11] (ATCC14035, Candida albicans ATCC 14035, microbroth dilution, read-out: IC50 of N-Acyltyrosines), > 286 µM. Besides, the “growth inhibition (in words)” value in [1] (VRE, initial screen, microbroth dilution) is on record as “Growth inhibition was observed”; in experiment [7] it was “Growth inhibition was observed; also recorded: inhibited”; in experiment [8] (S. warneri) it was “Growth inhibition was observed”. Moreover, the Incomplete growth inhibition in experiment [7] (S. aureus, 8-128 μg/mL (footnote b)) is recorded as < 75%; in experiment [8] (S. warneri, from 2-64 μg/mL (footnote b)), < 50%. The “concentration at which maximum inhibition was achieved” value in [7] (S. aureus, inhibition incomplete, plateaued at higher concentrations (FIG. 25)) amounted to 8 µg/mL. Also, the “antimicrobial activity (in words)” value in experiment [9] (Gram-negative pathogen Pseudomonas aeruginosa, initial screen) is reported as “no activity was observed”; in experiment [10] (Gram-negative pathogen Proteus vulgaris, initial screen) it was “no activity was observed”; in experiment [11] (fungal pathogen Candida albicans, initial screen) it was “no activity was observed”.
As for `CCCCCCCCCCCCCCCC(=O)N[C@@H](Cc1ccc(OC)cc1)C(=O)O` [Compound 2, N-Palmitoyl-O-methyl-L-tyrosine], the IC50 in experiment [1] (microbroth dilution) was 13.3 µM; in experiment [2] it was 10.5 µM; in experiment [3] it was > 295 µM; in experiment [4], 71.5 µM; in [5] it was 10.7 µM; in experiment [6], 3.6 µM. Further, the IC50 in experiment [7] and in experiment [8] was > 295 µM in each case. For the same compound, the “Enterococcus inhibitory activity (in words)” value in [3] (E. faecalis 16371, FIG. 24 legend) was “inactive”. For the same compound, the “growth at the highest concentration tested (in words)” value in experiment [7] (S. aureus) and in experiment [8] (S. warneri) was “unaffected” in each case.
Take `CCCCCCCCCCCCCCCC(=O)N[C@@](C)(Cc1ccc(O)cc1)C(=O)O` [Compound 3, N-Palmitoyl-α-methyl-L-tyrosine]: the IC50 in experiment [1] (microbroth dilution) is 5.3 µM; in experiment [2] it was 9.9 µM; in [3], 9.2 to 18.4 µM; in [4] it was 4.6 µM; in [5], 9 µM; in experiment [6], 4.6 µM. Moreover, the half-inhibitory concentration (IC50) in experiment [7] and in experiment [8] was 9.2 to 18.4 µM throughout. The “growth inhibition (in words)” value in experiment [7] and in [8] (S. warneri) was “inhibited” throughout.
In the case of `CCCCCCCCCCCCCCCC(=O)N[C@@H](Cc1ccc(O)cc1)C(=O)O` [Compound 4, N-Palmitoyl-L-tyrosine], the 50% inhibitory concentration (IC50) in [1] (microbroth dilution) is 10.7 µM; in experiment [2], > 305 µM; in [3], 77.1 µM; in [4], 146 µM; in [5], 32.1 µM; in experiment [6], 5.6 µM. The concentration for half-maximal inhibition (IC50) in [7] and in [8] was > 305 µM in each case. Besides, the “Enterococcus inhibitory activity (in words)” value in experiment [2] (E. faecium 15337, FIG. 24 legend) was “inactive”. The Incomplete growth inhibition in experiment [2] (E. faecium 15337, at all tested concentrations (footnote b)) was < 50. In addition, the “growth at the highest concentration tested (in words)” value in experiment [7] (S. aureus) and in experiment [8] (S. warneri) was “unaffected” in each case.
With `CO[C@H]1/C=C/O[C@@]2(C)Oc3c(C)c(O)c4c(O)c(c(/C=N/N5CCN(C)CC5)c(O)c4c3C2=O)NC(=O)/C(C)=C\C=C\[C@H](C)[C@H](O)[C@@H](C)[C@@H](O)[C@@H](C)[C@H](OC(C)=O)[C@@H]1C` [RIF, reference compound], the “IC50 of positive control antibiotic” value in [1] (E. faecium EF379, positive control) was 4 µg/mL; in experiment [2] (E. faecium 15337, positive control), > 16 µg/mL; in [3] (E. faecalis 16371, positive control), > 8 µg/mL; in experiment [4] (E. gallinarum 20993, positive control), 3 µg/mL; in [5] (E. casseliflavus 15984, positive control) it was 0.9 µg/mL; in [6] (E. hirae 17446, positive control), < 0.5 µg/mL.
Consider `CN[C@H](CC(C)C)C(=O)N[C@H]1C(=O)N[C@@H](CC(N)=O)C(=O)N[C@H]2C(=O)N[C@H]3C(=O)N[C@H](C(=O)N[C@H](C(=O)O)c4cc(O)cc(O)c4-c4cc3ccc4O)[C@H](O)c3ccc(c(Cl)c3)Oc3cc2cc(c3O[C@@H]2O[C@H](CO)[C@@H](O)[C@H](O)[C@H]2O[C@H]2C[C@](C)(N)[C@H](O)[C@H](C)O2)Oc2ccc(cc2Cl)[C@H]1O` [VAN, reference compound], for which the “IC50 of positive control antibiotic” value in experiment [7] (S. aureus ATCC 33591, positive control) was 2 µg/mL; in experiment [8] (S. warneri, positive control) it was < 0.125 µg/mL.
